Reference: patent US11541029B2, “High penetration compositions and their applications” (Techfields Pharma Co., Ltd., priority 2008, dated 2023)

Assays:
[1] = test system: human myeloma cell line implanted into mice; test: Survival of mice with multiple myeloma (Example 110, Study B); type: in vivo; conditions: n=5
Procedure: Study B: For evaluation of antitumor activity, a human myeloma cell line derived from the ascites of a patient with multiple myeloma was implanted into mice. The experiment was carried out on 17 groups of mice. Control group (A, orally), chlorambucil (group B1: 1 mg/kg, orally, group B2, 3 mg/kg, orally, group B3:1 mg/kg, transdermally, and group B4: 3 mg/kg, transdermally), melphalan (group C1: 1 mg/kg, orally, group C2, 3 mg/kg, orally, group C3:1 mg/kg, transdermally, and group C4: 3 mg/kg, transdermally), N,N-diethylaminoethyl 4-[bis(2-chloroethyl)amino]benzenebutyrate.HBr (the HPC of chlorambucil (group D1: 1 mg/kg, orally, group D2, 3 mg/kg, orally, group D3:1 mg/kg, transdermally, and group D4: 3 mg/kg, transdermally), and 4-[bis(2-chloroethyl)amino]-N-acetyl-L-phenylalanine N,N-diethylaminoethyl ester hydrobromide (the HPC of melphalan) (group E1: 1 mg/kg, orally, group E2, 3 mg/kg, orally, group E3:1 mg/kg, transdermally, and group E4: 3 mg/kg, transdermally).

[2] = test system: human myeloma cell line implanted into mice; test: Survival and weight loss of myeloma mice (Example 111); type: in vivo; conditions: for Weight Loss: day 21; for Life Elongation Rate / None Disease Rate / Survival Period: n=7
From the text: A human myeloma cell line derived from the ascites of a patient with multiple myeloma was implanted into mice. The mice was divided into 11 groups: control group (A, orally), melphalan (B1 and B2, orally), chlorambucil (C1 and C2, orally), N,N-diethylaminoethyl 4-[bis(2-chloroethyl)amino]benzenebutyrate.HBr (D1 and D2, transdermally), 4-[bis(2-chloroethyl)amino]-N-acetyl-L-phenylalanine N,N-diethylaminoethyl ester hydrobromide (E1 and E2, transdermally in 5% aqueous solution), and diethylaminoethyl 4-[bis(2-methylsulfonylethyl)amino]benzenebutyrate.HCl (F1 and F2, transdermally in 5% aqueous solution). The body weight loss of mice was determined on day 21.

[3] = test system: Human breast cancer cells (BCAP-37); test: Human breast cancer xenograft in nude mice
Procedure: Human breast cancer cells (BCAP-37, 2-3 mm^3 of tumor tissue was used in each mouse) were subcutaneously xenografted into nude mice (BALB, 12 groups, 7 mice each group). […] 50 μl of 5% (equal to 2.5 mg of the HPCs) diethylaminoethyl acetylsalicylate.HCl (P-1, in pure water); 1-piperidinepropyl 2[(2,6-dichlorophenyl)amino]benzene acetate.HCl (P-2, in water), 1-pyrrolidinepropyl 2-(3-benzoylphenyl) propionate.HCl (P-3, in water), 4-piperidinemethyl 2-(3-phenoxyphenyl)propionate.HCl (P-4, in water), 3-piperidinemethyl 2-(ρ-isobutylphenyl) propionate.HCl (P-5, in water), diethylaminoethyl 1-(p-chlorobenzoyl)-5-methoxy-2-methylindole 3-acetate.HCl (P-11, in water), 2-(4-morpholinyl)ethyl (Z)-5-fluoro-2-methyl-1-[(4-methylsulfinyl)phenylmethylene]-1H-indene-3-acetate.

[4] = Distribution in organs of rats killed with CO2 (absence of general circulation); conditions: 5 hrs after 0.3 mmol/kg diethylaminoethyl acetylsalicylate HCl salt on back of killed rats;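 also: tissue concentration in nmol/g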
Procedure: 0.3 mmol/kg of diethylaminoethyl acetylsalicylate HCl salt (10% in pure water) was applied to the back of rats (10 cm^2) which were killed with CO2. The rats were shaken for 5 hrs, then the HPCs and parent drugs in organs of rats were determined.

[5] = 1.5 mg/kg per day, transdermally
[6] = 50 μl of 5% topically every 8 hours
[7] = 50 μl of 5% topically every 8 hours, in g (unit assumed)

SMILES: Br.CCN(CC)CCOC(=O)CCCc1ccc(N(CCCl)CCCl)cc1 [N,N-diethylaminoethyl 4-[bis(2-chloroethyl)amino]benzenebutyrate.HBr]
- Life Elongation Rate ([1]; 1 mg/kg per day, orally): 158%
- Survival Period ([1]; 1 mg/kg per day, orally): 71.7 ± 3.3 days
- Life Elongation Rate ([1]; 1 mg/kg per day, transdermally): 188%
- Survival Period ([1]; 1 mg/kg per day, transdermally): 85.7 ± 4.4 days
- Life Elongation Rate ([1]; 3 mg/kg per day, orally): 194%
- Survival Period ([1]; 3 mg/kg per day, orally): 88.5 ± 3.2 days
- Life Elongation Rate ([1]; 3 mg/kg per day, transdermally): 201%
- Survival Period ([1]; 3 mg/kg per day, transdermally): 91.5 ± 4.7 days
- Weight Loss [2, 5]: 7%
- Life Elongation Rate [2, 5]: 282%
- None Disease Rate [2, 5]: 4/7
- Survival Period [2, 5]: 122.5 ± 7.3 days
- Weight Loss ([2]; 3 mg/kg per day, transdermally): 10%
- Life Elongation Rate ([2]; 3 mg/kg per day, transdermally): 269%
- None Disease Rate ([2]; 3 mg/kg per day, transdermally): 4/7
- Survival Period ([2]; 3 mg/kg per day, transdermally): 117.2 ± 6.1 days

SMILES: CCN(CC)CCOC(=O)C(C)c1ccc2c(c1)C(=O)Cc1cc(C)ccc1O2.Cl (stereo not drawn) [P-37, diethylaminoethyl 2-(8-methyl-10,11-dihydro-11-oxodibenz(b,f)oxepin-2-yl)propionate.HCl]
- tumor Size at day 42 [3, 6]: 270 ± 70 mm^3
- Weight of mice at day 42 ([3]; in vivo): 23 ± 3

SMILES: CN(C)CCCC(=O)OC1=C(C(=O)Nc2ccccn2)N(C)S(=O)(=O)c2ccccc21.Cl [P-51, 4-N,N-dimethylaminobutyryloxy-2-methyl-N-2-pyridinyl-2H,1,2-benzothiazine-3-carboxamide 1,1-dioxide.HCl]
- tumor Size at day 42 [3, 6]: 390 ± 55 mm^3
- Weight of mice at day 42 ([3]; in vivo): 23 ± 2

SMILES: CC1=C(CC(=O)OCCN2CCOCC2)c2cc(F)ccc2/C1=C\c1ccc([S+](C)[O-])cc1.Cl (stereo not drawn) [P-12, 2-(4-morpholinyl)ethyl (Z)-5-fluoro-2-methyl-1-[(4-methylsulfinyl)phenylmethylene]-1H-indene-3-acetate. HCl]
- tumor Size at day 42 [3, 6]: 240 ± 60 mm^3
- Weight of mice at day 42 ([3]; in vivo): 23 ± 3

SMILES: N[C@@H](Cc1ccc(N(CCCl)CCCl)cc1)C(=O)O [melphalan, reference compound]
- Life Elongation Rate ([1]; 1 mg/kg per day, orally): 106%
- Survival Period ([1]; 1 mg/kg per day, orally): 48.1 ± 5.3 days
- Life Elongation Rate ([1]; 1 mg/kg per day, transdermally): 98%
- Survival Period ([1]; 1 mg/kg per day, transdermally): 44.7 ± 3.6 days
- Life Elongation Rate ([1]; 3 mg/kg per day, orally): 155%
- Survival Period ([1]; 3 mg/kg per day, orally): 70.5 ± 3.2 days
- Life Elongation Rate ([1]; 3 mg/kg per day, transdermally): 100%
- Survival Period ([1]; 3 mg/kg per day, transdermally): 45.6 ± 3.6 days
- Weight Loss ([2]; 1.5 mg/kg per day, orally): 10%
- Life Elongation Rate ([2]; 1.5 mg/kg per day, orally): 121%
- None Disease Rate ([2]; 1.5 mg/kg per day, orally): 0/7
- Survival Period ([2]; 1.5 mg/kg per day, orally): 52.7 ± 4.3 days
- Weight Loss ([2]; 3 mg/kg per day, orally): 20%
- Life Elongation Rate ([2]; 3 mg/kg per day, orally): 192%
- None Disease Rate ([2]; 3 mg/kg per day, orally): 2/7
- Survival Period ([2]; 3 mg/kg per day, orally): 83.5 ± 5.8 days

SMILES: O=C(O)c1ccccc1O [salicylic acid]
- concentration in Leg muscle [4]: 41.4 ± 11.2 nmol/g
- concentration in kidney [4]: 21.2 ± 7.6 nmol/g
- concentration in liver [4]: 12.2 ± 6.1 nmol/g
- concentration in pancreas [4]: 14.1 ± 1.2 nmol/g
- concentration in stomach [4]: 25.1 ± 2.4 nmol/g

SMILES: Cl.O=C(OCCCN1CCCC1)c1ccccc1Nc1cccc(C(F)(F)F)c1 [P-48]
- tumor Size at day 42 [3, 6]: 280 ± 50 mm^3
- Weight of mice at day 42 [3, 7]: 22 ± 3

SMILES: CCN(CC)CCOC(=O)Cc1ccccc1Oc1ccc(Cl)cc1Cl.Cl [P-19, diethylaminoethyl 2-(2,4-dichlorophenoxy)benzeneacetate.HCl]
- tumor Size at day 42 [3, 6]: 260 ± 55 mm^3
- Weight of mice at day 42 ([3]; in vivo): 22 ± 2

SMILES: Br.CCN(CC)CCOC(=O)[C@H](Cc1ccc(N(CCCl)CCCl)cc1)NC(C)=O [4-[bis(2-chloroethyl)amino]-N-acetyl-L-phenylalanine N,N-diethylaminoethyl ester hydrobromide]
- Life Elongation Rate ([1]; 1 mg/kg per day, orally): 151%
- Survival Period ([1]; 1 mg/kg per day, orally): 68.7 ± 5.1 days
- Life Elongation Rate ([1]; 1 mg/kg per day, transdermally): 190%
- Survival Period ([1]; 1 mg/kg per day, transdermally): 86.7 ± 4.5 days
- Life Elongation Rate ([1]; 3 mg/kg per day, orally): 187%
- Survival Period ([1]; 3 mg/kg per day, orally): 85.2 ± 4.3 days
- Life Elongation Rate ([1]; 3 mg/kg per day, transdermally): 192%
- Survival Period ([1]; 3 mg/kg per day, transdermally): 87.5 ± 4.2 days
- Weight Loss [2, 5]: 5%
- Life Elongation Rate [2, 5]: 272%
- None Disease Rate [2, 5]: 4/7
- Survival Period [2, 5]: 118.5 ± 7.6 days
- Weight Loss ([2]; 3 mg/kg per day, transdermally): 9%
- Life Elongation Rate ([2]; 3 mg/kg per day, transdermally): 265%
- None Disease Rate ([2]; 3 mg/kg per day, transdermally): 3/7
- Survival Period ([2]; 3 mg/kg per day, transdermally): 115.2 ± 6.8 days

SMILES: CCN(CC)CCOC(=O)Cc1c(C)n(C(=O)c2ccc(Cl)cc2)c2ccc(OC)cc12.Cl [P-11, diethylaminoethyl 1-(p-chlorobenzoyl)-5-methoxy-2-methylindole 3-acetate.HCl]
- tumor Size at day 42 [3, 6]: 230 ± 105 mm^3
- Weight of mice at day 42 [3, 7]: 23 ± 2

SMILES: CCN(CC)CCOC(=O)CCCc1ccc(N(CCS(C)(=O)=O)CCS(C)(=O)=O)cc1.Cl [diethylaminoethyl 4-[bis(2-methylsulfonylethyl)amino]benzenebutyrate.HCl]
- Weight Loss [2, 5]: 7%
- Life Elongation Rate [2, 5]: 259%
- None Disease Rate [2, 5]: 4/7
- Survival Period [2, 5]: 112.5 ± 8.7 days
- Weight Loss ([2]; 3 mg/kg per day, transdermally): 11%
- Life Elongation Rate ([2]; 3 mg/kg per day, transdermally): 256%
- None Disease Rate ([2]; 3 mg/kg per day, transdermally): 3/7
- Survival Period ([2]; 3 mg/kg per day, transdermally): 111.2 ± 5.9 days

SMILES: CCN(CC)CCOc1ccccc1C(=O)O [diethylaminoethyl salicylic acid]
- concentration in Leg muscle [4]: 6.2 ± 3.2 nmol/g
- concentration in kidney [4]: 3.1 ± 1.6 nmol/g
- concentration in liver [4]: 1.5 ± 1.2 nmol/g
- concentration in pancreas [4]: 3.1 ± 1.1 nmol/g
- concentration in stomach [4]: 3.2 ± 1.3 nmol/g
